{
  "source": "paper PMC9516332",
  "about": "(Frontiers in Oncology, 2022)",
  "key": {"[1]": {"tested_on": "AP-1060 (ETV6-NTRK3)", "experiment": "Cell viability assay", "settings": "read-out: IC50 in cell proliferation assay"}, "[2]": {"tested_on": "134 cancer cell lines", "experiment": "Cell viability assay (ATPlite, 72 hours), IC50 on cancer cell line panel"}},
  "note": "pIC50: −log10 of the molar value. Like-named read-outs stand apart in the source and are kept apart here.",
  "data": [
    {"compound": "COC(=O)N[C@@H](C)CNc1nccc(-c2cn(C(C)C)nc2-c2cc(Cl)cc(NS(C)(=O)=O)c2F)n1", "note": "[encorafenib]", "values": [
      {"measurement": "pIC50", "setting": "[1]", "result": 5.60},
      {"measurement": "pIC50", "setting": "[2]; HEC-6, read-out: IC50 in cell proliferation assay, HEC-6 cell line (EGFR p.A289V)", "result": 5.91},
      {"measurement": "pIC50", "setting": "[2]; Homo sapiens, 769-P, read-out: IC50 in cell proliferation assay, cell line 769-P", "result": 5.93},
      {"measurement": "pIC50", "setting": "[2]; Homo sapiens, 786-0, read-out: IC50 in cell proliferation assay, cell line 786-O", "result": 5.86},
      {"measurement": "pIC50", "setting": "[2]; Homo sapiens, A 172, read-out: IC50 in cell proliferation assay, cell line A-172", "result": 5.75},
      {"measurement": "pIC50", "setting": "[2]; Homo sapiens, A204, read-out: IC50 in cell proliferation assay, cell line A-204", "result": 5.98},
      {"measurement": "pIC50", "setting": "[2]; Homo sapiens, A498, read-out: IC50 in cell proliferation assay, cell line A-498", "result": 6.28},
      {"measurement": "pIC50", "setting": "[2]; Homo sapiens, A549, read-out: IC50 in cell proliferation assay, cell line A-549", "result": 5.91},
      {"measurement": "pIC50", "setting": "[2]; Homo sapiens, A704, read-out: IC50 in cell proliferation assay, cell line A-704", "result": 5.26},
      {"measurement": "pIC50", "setting": "[2]; Homo sapiens, A-375, read-out: IC50 in cell proliferation assay, cell line A-375 (BRAF p.V600E)", "result": 8.05},
      {"measurement": "pIC50", "setting": "[2]; Homo sapiens, A-427, read-out: IC50 in cell proliferation assay, cell line A-427", "result": 6.08},
      {"measurement": "pIC50", "setting": "[2]; Homo sapiens, ACHN, read-out: IC50 in cell proliferation assay, cell line ACHN", "result": 6.20},
      {"measurement": "pIC50", "setting": "[2]; Homo sapiens, AN3-CA, read-out: IC50 in cell proliferation assay, cell line AN3-CA (FGFR2 p.N549K)", "result": 6.21},
      {"measurement": "pIC50", "setting": "[2]; Homo sapiens, ASPC1, read-out: IC50 in cell proliferation assay, cell line AsPC-1", "result": 5.54},
      {"measurement": "pIC50", "setting": "[2]; Homo sapiens, AU565, read-out: IC50 in cell proliferation assay, cell line AU565 (ERBB2 amplification)", "result": 6.38},
      {"measurement": "pIC50", "setting": "[2]; Homo sapiens, BT-20, read-out: IC50 in cell proliferation assay, cell line BT-20", "result": "< 4.50"},
      {"measurement": "pIC50", "setting": "[2]; Homo sapiens, BT-474, read-out: IC50 in cell proliferation assay, cell line BT-474 (ERBB2 amplification)", "result": "< 4.50"},
      {"measurement": "pIC50", "setting": "[2]; Homo sapiens, BT-549, read-out: IC50 in cell proliferation assay, cell line BT-549", "result": 5.99},
      {"measurement": "pIC50", "setting": "[2]; Homo sapiens, BXPC-3, read-out: IC50 in cell proliferation assay, cell line BxPC-3", "result": 6.39},
      {"measurement": "pIC50", "setting": "[2]; Homo sapiens, C-33-A, read-out: IC50 in cell proliferation assay, cell line C-33 A", "result": 6.04},
      {"measurement": "pIC50", "setting": "[2]; Homo sapiens, CAL-27, read-out: IC50 in cell proliferation assay, cell line CAL-27", "result": 5.16},
      {"measurement": "pIC50", "setting": "[2]; Homo sapiens, CCF-STTG1, read-out: IC50 in cell proliferation assay, cell line CCF-STTG1", "result": "< 4.50"},
      {"measurement": "pIC50", "setting": "[2]; Homo sapiens, CCRF-CEM, read-out: IC50 in cell proliferation assay, cell line CCRF-CEM", "result": "< 4.50"},
      {"measurement": "pIC50", "setting": "[2]; Homo sapiens, COLO 205, read-out: IC50 in cell proliferation assay, cell line COLO 205 (BRAF p.V600E)", "result": 8.48},
      {"measurement": "pIC50", "setting": "[2]; Homo sapiens, COLO-829, read-out: IC50 in cell proliferation assay, cell line COLO 829 (BRAF p.V600E)", "result": 8.05},
      {"measurement": "pIC50", "setting": "[2]; Homo sapiens, DLD-1, read-out: IC50 in cell proliferation assay, cell line DLD-1", "result": 5.78},
      {"measurement": "pIC50", "setting": "[2]; Homo sapiens, DU-4475, read-out: IC50 in cell proliferation assay, cell line DU4475 (BRAF p.V600E)", "result": 8.10},
      {"measurement": "pIC50", "setting": "[2]; Homo sapiens, Daoy, read-out: IC50 in cell proliferation assay, cell line Daoy", "result": "< 4.50"},
      {"measurement": "pIC50", "setting": "[2]; Homo sapiens, DoTc2-4510, read-out: IC50 in cell proliferation assay, cell line DoTc2 4510", "result": 5.48},
      {"measurement": "pIC50", "setting": "[2]; Homo sapiens, EOL1, read-out: IC50 in cell proliferation assay, cell line EoL-1 (FIP1L1-PDGFRA)", "result": 5.63},
      {"measurement": "pIC50", "setting": "[2]; Homo sapiens, FaDu, read-out: IC50 in cell proliferation assay, cell line FaDu", "result": 6.02},
      {"measurement": "pIC50", "setting": "[2]; Homo sapiens, G-361, read-out: IC50 in cell proliferation assay, cell line G-361 (BRAF p.V600E)", "result": 7.89},
      {"measurement": "pIC50", "setting": "[2]; Homo sapiens, HCC827, read-out: IC50 in cell proliferation assay, cell line HCC827 (EGFR exon19del)", "result": 6.05},
      {"measurement": "pIC50", "setting": "[2]; Homo sapiens, HCC4006, read-out: IC50 in cell proliferation assay, cell line HCC4006 (EGFR exon19del)", "result": "< 4.50"},
      {"measurement": "pIC50", "setting": "[2]; Homo sapiens, HCT-15, read-out: IC50 in cell proliferation assay, cell line HCT 15", "result": 5.53},
      {"measurement": "pIC50", "setting": "[2]; Homo sapiens, HCT-116, read-out: IC50 in cell proliferation assay, cell line HCT 116", "result": 5.94},
      {"measurement": "pIC50", "setting": "[2]; Homo sapiens, HEC-1, read-out: IC50 in cell proliferation assay, HEC-1 cell line", "result": 5.80},
      {"measurement": "pIC50", "setting": "[2]; Homo sapiens, HEC-1B, read-out: IC50 in cell proliferation assay, HEC-1-B cell line (EGFR p.A864V)", "result": 5.68},
      {"measurement": "pIC50", "setting": "[2]; Homo sapiens, HL-60, read-out: IC50 in cell proliferation assay, HL-60 cell line", "result": 5.74},
      {"measurement": "pIC50", "setting": "[2]; Homo sapiens, HT, read-out: IC50 in cell proliferation assay, HT cell line", "result": "< 4.50"},
      {"measurement": "pIC50", "setting": "[2]; Homo sapiens, HT-1080, read-out: IC50 in cell proliferation assay, HT-1080 cell line", "result": 6.42},
      {"measurement": "pIC50", "setting": "[2]; Homo sapiens, Hs746T, read-out: IC50 in cell proliferation assay, Hs 746.T cell line (MET exon14skip + amplification)", "result": 5.95},
      {"measurement": "pIC50", "setting": "[2]; Homo sapiens, Hs-578T, read-out: IC50 in cell proliferation assay, Hs 578T cell line", "result": 5.99},
      {"measurement": "pIC50", "setting": "[2]; Homo sapiens, HuTu80, read-out: IC50 in cell proliferation assay, HuTu 80 cell line", "result": 5.95},
      {"measurement": "pIC50", "setting": "[2]; Homo sapiens, J82, read-out: IC50 in cell proliferation assay, J82 cell line", "result": 6.02},
      {"measurement": "pIC50", "setting": "[2]; Homo sapiens, Jurkat E6.1, read-out: IC50 in cell proliferation assay, Jurkat E6.1 cell line", "result": 5.99},
      {"measurement": "pIC50", "setting": "[2]; Homo sapiens, K562, read-out: IC50 in cell proliferation assay, K-562 cell line", "result": 4.56},
      {"measurement": "pIC50", "setting": "[2]; Homo sapiens, KATO III, read-out: IC50 in cell proliferation assay, KATO III cell line (FGFR2 amplification)", "result": 5.82},
      {"measurement": "pIC50", "setting": "[2]; Homo sapiens, KG-1, read-out: IC50 in cell proliferation assay, KG-1 cell line (FGFR1OP2-FGFR1)", "result": 5.84},
      {"measurement": "pIC50", "setting": "[2]; Homo sapiens, KLE, read-out: IC50 in cell proliferation assay, KLE cell line", "result": 6.09},
      {"measurement": "pIC50", "setting": "[2]; Homo sapiens, KMS-11, read-out: IC50 in cell proliferation assay, KMS-11 cell line (FGFR3 p.Y373C)", "result": 5.47},
      {"measurement": "pIC50", "setting": "[2]; Homo sapiens, KU812, read-out: IC50 in cell proliferation assay, Ku812 cell line", "result": 5.59},
      {"measurement": "pIC50", "setting": "[2]; Homo sapiens, Kasumi 1, read-out: IC50 in cell proliferation assay, Kasumi-1 cell line (KIT p.N822K)", "result": 5.52},
      {"measurement": "pIC50", "setting": "[2]; Homo sapiens, LC-2-ad, read-out: IC50 in cell proliferation assay, LC-2/ad cell line (CCDC6-RET)", "result": 5.82},
      {"measurement": "pIC50", "setting": "[2]; Homo sapiens, LNCaP-Clone-FGC, read-out: IC50 in cell proliferation assay, LNCaP clone FGC cell line", "result": 5.67},
      {"measurement": "pIC50", "setting": "[2]; Homo sapiens, LS174T, read-out: IC50 in cell proliferation assay, LS174T cell line", "result": 5.77},
      {"measurement": "pIC50", "setting": "[2]; Homo sapiens, LS-411N, read-out: IC50 in cell proliferation assay, LS411N cell line (BRAF p.V600E)", "result": 8.22},
      {"measurement": "pIC50", "setting": "[2]; Homo sapiens, LoVo, read-out: IC50 in cell proliferation assay, LoVo cell line", "result": 5.60},
      {"measurement": "pIC50", "setting": "[2]; Homo sapiens, MCF7, read-out: IC50 in cell proliferation assay, MCF-7 cell line", "result": "< 4.50"},
      {"measurement": "pIC50", "setting": "[2]; Homo sapiens, MDA-MB-231, read-out: IC50 in cell proliferation assay, MDA-MB-231 cell line", "result": 5.62},
      {"measurement": "pIC50", "setting": "[2]; Homo sapiens, MDA-MB-453, read-out: IC50 in cell proliferation assay, MDA-MB-453 cell line", "result": "< 4.50"},
      {"measurement": "pIC50", "setting": "[2]; Homo sapiens, MDA-MB-468, read-out: IC50 in cell proliferation assay, MDA-MB-468 cell line", "result": "< 4.50"},
      {"measurement": "pIC50", "setting": "[2]; Homo sapiens, MG-63, read-out: IC50 in cell proliferation assay, MG-63 cell line", "result": "< 4.50"},
      {"measurement": "pIC50", "setting": "[2]; Homo sapiens, MIA PaCa-2, read-out: IC50 in cell proliferation assay, MIA PaCa-2 cell line", "result": 5.91},
      {"measurement": "pIC50", "setting": "[2]; Homo sapiens, MKN-45, read-out: IC50 in cell proliferation assay, MKN45 cell line (MET amplification)", "result": 5.42},
      {"measurement": "pIC50", "setting": "[2]; Homo sapiens, MOLM-13, read-out: IC50 in cell proliferation assay, MOLM-13 cell line (FLT3 ITD)", "result": 5.97},
      {"measurement": "pIC50", "setting": "[2]; Homo sapiens, MOLT-4, read-out: IC50 in cell proliferation assay, MOLT-4 cell line", "result": 5.78}
    ]}
  ]
}
